# Reference: patent US10960020B2, “Modulation of PCSK9 and LDLR through DRP1 inhibition” (THE BRIGHAM AND WOMEN'S HOSPITAL, INC., priority 2016, dated 2021)
# System: PCSK9 secretion
# Assay: SILAC mass spectrometry of HepG2 secreted proteins: PCSK9
# Assay type: cell-based, human
# Details: HepG2, Mdivi-1 50 μM, 24 hours, vs vehicle
# Experimental: To assess DRP1 involvement in protein secretion, secretome changes were quantified using stable isotope labeling by amino acids in cell culture (SILAC).
# HepG2 cells were cultured on 100 mm dishes at a confluency of ˜60-70%. […] Media was prepared with DMEM (no lysine, no arginine; A14431-01, Thermo Fisher Scientific) to which L-glutamine (2 mM, Lonza, Walkersville, Md.), L-arginine HCl (0.17 mM; Sigma), either light L-lysine HCl (0.339 mM; Sigma) or heavy L-lysine 2HCl (0.339 mM; Cambridge Isotopes, Tewksbury, Mass.), 10% dialyzed FBS (Thermo Fisher Scientific), 1% pen/strep was added. Media was changed every two days, and cells were split as required. […]
# The peptide sample was diluted [1/10-fold] and analyzed with the high resolution/accuracy Q Exactive™ mass spectrometer fronted with a Nanospray™ FLEX ion source, and coupled to an Easy-nLC1000 HPLC pump (Thermo Fisher Scientific). […] The peptide false discovery rate (FDR) was calculated using Percolator™ provided by Proteome Discoverer. […] Quantification of SILAC peak pairs was also done in Proteome Discoverer™ using up to the top three most abundant peptides. […] Significant changes were determined as proteins with an average value (ratio of Mdivi-1 treated/vehicle treated peak intensity) plus two standard deviations being less than the control value (vehicle treated/vehicle treated peak intensity=1). […]
structure (smiles),measurement,value
"COc1cc(-n2c(S)nc3ccccc3c2=O)c(Cl)cc1Cl [Mdivi-1, 3-(2,4-Dichloro-5-methoxyphenyl)-2,3-dihydro-2-thioxo-4(1H)-quinazolinone]",PCSK9 secretion reduction (SILAC),−74%
